The source of these data is publication doi:10.1101/836932v1 (biorxiv, 2019).

Molecules are shown by their SMILES. Some results are limits rather than exact numbers.

The assay concerns the target T1, MLLT3 (AF9) (Homo sapiens, UniProt P42568).
T1 sequence (P42568 1-138 limits assumed): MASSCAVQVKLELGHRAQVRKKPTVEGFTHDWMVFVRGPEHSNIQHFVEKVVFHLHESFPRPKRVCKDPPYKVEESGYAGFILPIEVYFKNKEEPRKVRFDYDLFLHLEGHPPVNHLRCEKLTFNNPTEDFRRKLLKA
Nature of the assay: AlphaScreen. It counts as binding.
For orientation: IC50 means the concentration needed to halve the response being measured. `COc1ccc(CNC(=O)N2CCN(c3ccc(C(C)=O)cc3)CC2)cn1` [compound 1, piperazine-1-carboxamide 1]: half-maximal inhibition (IC50) was put at 7.8 µM. With `O=C(NCc1ccc(CN2CCCC2)cc1)N1CCN(C(=O)c2cccs2)CC1` [compound 2, piperazine-1-carboxamide 2], the IC50 is 33 µM. Turning to `CCN(CC)Cc1ccc(CNC(=O)N2CCN(c3ncccn3)CC2)cc1` [compound 3, piperazine-1-carboxamide 3], the IC50 was > 100 µM.
